In one assay the target is T1, AT1R (Homo sapiens, UniProt P30556).
T1 construct: endogenous in cells; host or cells: A375 melanoma cells (ATCC)
T1 sequence (P30556 1-359): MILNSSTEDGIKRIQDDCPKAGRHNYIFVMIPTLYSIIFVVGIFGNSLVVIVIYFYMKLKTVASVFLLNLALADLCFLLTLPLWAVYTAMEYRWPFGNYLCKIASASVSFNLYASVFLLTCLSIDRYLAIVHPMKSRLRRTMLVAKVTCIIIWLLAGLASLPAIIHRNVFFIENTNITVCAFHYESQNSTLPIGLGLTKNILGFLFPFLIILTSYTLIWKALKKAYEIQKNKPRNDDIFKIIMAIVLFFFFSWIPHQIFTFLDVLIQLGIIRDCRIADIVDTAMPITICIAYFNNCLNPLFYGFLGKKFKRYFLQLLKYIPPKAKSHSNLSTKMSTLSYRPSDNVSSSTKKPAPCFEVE
Description: Angiotensin II-induced Ca2+ release, Fluo-4 AM live-cell imaging. The assay is classed as cell-based. Particulars: 2 min; for Effect on AngII-induced Ca2+ increase (combination treatment): A375, 25 μM compound + 1 μM AngII; for Effect of compound alone on baseline Ca2+ signaling: A375, compound alone. As for the experimental part:
Fluo-4 AM calcium indicator dye (F14201, Molecular Probes, Eugene, OR, USA) was used to observe Ca^2+ dynamics upon treatment, per manufacturer’s instructions. Briefly, 5000 A375 cells/well were seeded in 96-well optical bottom black cell culture plates (165305, Thermo Scientific). Fluo-4 AM stock solution in DMSO was mixed with equal volume of 20% Pluronic F-127 to assist in dispersion of AM esters before dilution into the loading medium. Twenty-four hours after seeding medium was removed, and cells were washed with HBBS without calcium and magnesium. Cells were stained in HBSS medium with 1.25 μM Fluo-4-AM for 30 min at 37 °C. After incubation, cells were washed and incubated in complete medium (10%FBS RPMI) to allow de-esterification for 30 min and then treated with 1 μM human Angiotensin II (A9525, Sigma Aldrich), 50 μM telmisartan, compounds 1, 3, and 8, or the combinations. Images were taken before addition of the treatment (0 min) and after 2 min of treatment on Zeiss PALM MicroBeam Axio Observer Z1 microscope (Carl Zeiss MicroImaging GmbH, Oberkochen, Germany) with Zeiss LD Plan-Neofluar 20×/0.4 Korr, ∞/0–1.5 mm lens and AxioVision SE64 Rel.4.9.1 software. Experiment was repeated three times. Integrated density of Fluo-4 fluorescence at 2 min of exposure to treatment was calculated with Image J, and normalized to the baseline fluorescence at time 0, in at least two random fields for each condition. Conditions were compared with one-way ANOVA and Tukey’s multiple comparisons test. p < 0.05 was considered statistically significant.

The subject of a further assay is A375 cells. Description: MTT cell viability assay, A375. Particulars: 72 h; for Effect on cell viability at single concentration: A375, 25 μM, MTT; for IC50: Homo sapiens, A-375, A375, MTT. It is filed as cell-based. The method, then:
A375, MRC-5, and HaCaT cell lines were obtained from the American Type Culture Collection (ATCC). 518A2 cell line was kindly provided by Dr. […]ć. All cell lines were cultured in RPMI 1640 medium supplemented with 2 g/L glucose, 10% fetal bovine serum (FBS), and antibiotics. […] Cell viability was assessed using the MTT assay (Sigma Aldrich, #M5655). […] After 72 h of incubation, absorbance was measured at 570 nm using a Multiskan SkyHigh microplate reader (Thermo Fisher Scientific, Helsinki, Finland). Values were corrected by subtracting the absorbance measured in wells containing cell-free medium with tested compounds.
A general note: Tetrazolium assays rely on reduction of a dye to a coloured formazan, in cell work by metabolically active cells.

Each structure is given as a SMILES string.

A word on the IC50: it is the concentration that inhibits the measured activity by half. Read a low IC50 as inhibition by little substance.

With `CCCc1nc2c(C)cc(-c3nc4ccccc4n3C)cc2n1Cc1ccc(-c2ccccc2C(=O)NC(Cc2ccc(O)cc2)C(=O)O)cc1` (centres unmarked) [compound 3, 2-{[4′-(1,7′-dimethyl-2′-propyl-1H-[2,5′]bibenzoimidazolyl-3′-ylmethyl)-biphenyl-2-carbonyl]-amino}-3-(4-hydroxy-phenyl)-propionic acid], on AT1R, the “Effect on AngII-induced Ca2+ increase (combination treatment)” value was “did not prevent AngII-induced Ca^2+ increase” and the “Effect of compound alone on baseline Ca2+ signaling” value is listed as “no significant changes in the baseline Ca^2+ signaling”. Further, in the assay on A375 cells, the “Effect on cell viability at single concentration” value is “significant reductions in cell viability” and half-maximal inhibition (IC50) required 32.1 ± 2.38 µM.
The like results for `CCCc1nc2c(C)cc(-c3nc4ccccc4n3C)cc2n1Cc1ccc(-c2ccccc2C(=O)NC(Cc2ccccc2)C(=O)O)cc1` (centres unmarked) [compound 8, 2-{[4′-(1,7′-dimethyl-2′-propyl-1H-[2,5′]bibenzoimidazolyl-3′-ylmethyl)-biphenyl-2-carbonyl]-amino}-3-phenyl-propionic acid] were, in that order, “did not prevent AngII-induced Ca^2+ increase”, “no significant changes in the baseline Ca^2+ signaling”, “significant reductions in cell viability” and 27.2 ± 0.58 µM.

These data come from paper PMC12787000 (Molecules, 2025).
